In patent US20090042978A1, “Pharmaceutical Compositions Containing Nitrovinylfuran Derivatives for the Treatment of Leishmaniosis and Trypanosomosis” (CENTRO DE BIOACTIVOS QUIMICOS, priority 2005, published 2009):
In brackets after ≈: the same amount, converted by molar mass. Several values for one entry are separate records, joined by “and”; a condition that tells them apart may be missing. Identical values can stand only once. Like-named read-outs stand apart in the source and are kept apart here.

Columns and labels:
[1] = test system: L. mexicana amazonensis promastigotes; assay: In vitro activity against Leishmania promastigotes (amazonensis); format: cell-based; set-up: CP100: unit not given here; conditions: for IC50: Leishmania mexicana, mean inhibitory concentration, read-out: CI50 (the source's name); for CP100: minimal parasiticidal concentration abolishing motility of all parasites
Procedure: (§1) Mean inhibitory concentrations (Cl50%) against L. mexicana amazonensis, L. donovani infantum and L. braziliensis braziliensis promastigotes were determined according to the method described by Bodley A L et al (J Infect Dis 1995; 172(4):1157-9.). Minimal parasiticidal concentrations (CP100, minimal concentrations capable of abolishing the motility of all parasites in the culture) were also determined. Amphotericin B and Glucantime® were tested as reference drugs.

[2] = test system: trypomastigotes of T. cruzi; assay: In vitro activity against Trypanosoma cruzi; format: cell-based; conditions: for IC50: Trypanosoma cruzi, T. cruzi trypomastigotes grown in rat myoblast cell line, read-out: CI50 (the source's name); for CP100: minimal concentration that immobilizes all parasites
Procedure: The in vitro activity of the β-nitrovinylfuran derivatives was tested against trypomastigotes of T. cruzi grown in a rat myoblast cell line. Minimal parasiticidal concentrations (minimal concentration that immobilizes all the parasites in the culture) and mean inhibitory concentrations (concentration that reduces the number of parasites to 50% of those found in the un-treated control cultures) were determined according to Buckner's method (Antimicrob Agents Chemother 1996; 40(11):2592-7).

[3] = Toxicological studies (LD50, LD0, MTD), intraperitoneal; format: in vivo, female Balb/c mice; conditions: for MTD at 14 days: female, Balb/c; for LD0: maximal non-lethal dose calculated from dose-mortality curves, single i.p. injection; for LD50: single intraperitoneal injection, female Balb/c mice
Procedure: The same animal model used for in vivo anti-leishmanial tests was used to perform comparative toxicological studies of the β-nitrovinylfuran derivatives. The main excipient of the compositions used with this purpose was the sunflower oil. The mean lethal doses (LD50) of each β-nitrovinylfuran derivative and Amphotericin B were estimated in female Balb/c mice (18-20g body weight), treated by a single intraperitoneal injection. The maximal non-lethal doses (LD0) were calculated from the dose-mortality curves. The maximal tolerated doses (MTD, maximal dose causing neither mortality nor body weight losses over 10% respect to the initial weight) by repeated intraperitoneal administration every 12 or 24 h during 14 days were determined as well.

[4] = test system: L. braziliensis braziliensis promastigotes; assay: In vitro activity against Leishmania promastigotes (braziliensis); format: cell-based; set-up: CP100: unit not given here; conditions: for IC50: Leishmania braziliensis, mean inhibitory concentration, read-out: CI50 (the source's name); for CP100: minimal parasiticidal concentration
Procedure: as §1

[5] = test system: L. donovani infantum promastigotes; assay: In vitro activity against Leishmania promastigotes (infantum); format: cell-based; set-up: CP100: unit not given here; conditions: for IC50: Leishmania donovani, mean inhibitory concentration, read-out: CI50 (the source's name); for CP100: minimal parasiticidal concentration
Procedure: as §1

Leishmania promastigotes = assay: In vitro activity against Leishmania promastigotes (three species); format: cell-based
Procedure: as §1

L. m. amazonensis [6] = assay: Experimental cutaneous leishmaniosis, early stage lesions treated every 24 h; format: in vivo, Balb/c mice; conditions: for lesion evolution versus controls: during and after 14 days treatment, Amphotericin B 1 mg/Kg; for lesion evolution versus controls / lesion growth: D 5 mg/Kg; for lesion growth: i.p. daily, F 50 mg/Kg
Procedure: (§2) Balb/c mice were experimentally infected with L. m. amazonensis promastigotes by intradermal injection in the footpads and six weeks later they were treated with the test compounds by intraperitoneal route. The product 2-bromo-5-(2-bromo-2-nitrovinyl)-furan was administered at a dose of 5 mg/Kg; the 2-bromo-5-(2-methyl-2-nitrovinyl)-furan, at 50 mg/Kg and Amphotericin B, at 1 mg/Kg. Animals were daily dosed for 14 days. Miglyol 810, the vehicle used for the β-nitrovinylfuran derivatives, was similarly administered to a group of mice.

L. m. amazonensis [7] = assay: Experimental cutaneous leishmaniosis, chronic lesions treated every 12 h; format: in vivo, Balb/c mice; conditions: for effectiveness on chronic lesions: first week, F 50 mg/Kg twice a day, Amphotericin B 5 mg/Kg every other day; for lesion size: by the end of treatment (14 days)
Procedure: Mice developed chronic leishmanial lesions at eighteen weeks post-infection. Lesions were ulcerated and covered with a thick crust. The average dorso-plantar diameter of the infected foot was 1.23±0.24 cm and the lateral diameter was 1.24±0.19 cm. At that stage the treatment started twice a day with either 2-bromo-5-(2-bromo-2-nitrovinyl)-furan at 2 mg/Kg; 2-bromo-5-(2-methyl-2-nitrovinyl)-furan at 50 mg/Kg or Amphotericin B at 5 mg/Kg every other day. A control group formed by infected non-treated mice was also included in the experiment. All drugs were administered by intraperitoneal route for 14 days. […] Amphotericin B was not effective, since neither the dorso-plantar nor the lateral diameters differed statistically from the lesions of the control group (P>0.05).

L. m. amazonensis [8] = assay: Experimental cutaneous leishmaniosis, early stage lesions treated every 12 h; format: in vivo, Balb/c mice; conditions: for activity compared with Amphotericin B / lesion growth rate: i.p. every 12 h; for lesion growth rate: D 2 mg/Kg, F 100 mg/Kg
Procedure: as §2
The experiment was essentially carried out in a similar way as the one described above. However, 2-bromo-5-(2-bromo-2-nitrovinyl,-furan was administered at a dose of 2 mg/Kg and 2-bromo-5-(2-methyl-2-nitrovinyl)-furan at 100 mg/Kg. Treatments were administered by intraperitoneal route, but every 12 h instead of 24 h.

cutaneous leishmaniosis = assay: Treatment of human cutaneous leishmaniosis, topical ointment; format: in vivo; conditions: oily ointment 0.15%, topical once a day, 21 days
Procedure: One hundred patients with parasitological diagnose of cutaneous leishmaniosis were treated. Patients were topically treated, once a day, for 21 days with an oily ointment containing 0.15% 2-bromo-5-(2-bromo-2-nitrovinyl)-furan as active ingredient and petrolatum as the main excipient.

[9] = mouse, in vivo, ip, repeated intraperitoneal administration every 24 h during 14 days, read-out: MTD (every 24 h)
[10] = mouse, in vivo, ip, read-out: LD50

Molecule | IC50 [1] | CP100 [1] | IC50 [2] | CP100 [2] | MTD at 14 days [3, 9] | LD0 [3] | LD50 [3, 10] | IC50 [4] | CP100 [4] | IC50 [5] | CP100 [5] | further results
O=[N+]([O-])C=Cc1ccco1 [A, 2-(2-nitrovinyl)-furan] | 0.66 µg/mL (≈ 4.74 µM) | 1.12 | 1.8 µg/mL and 12.6 µM | 10.0 μg/mL and 71.9 μM | 55 mg/kg | 50 mg/kg | 68 mg/kg | 0.2 µg/mL (≈ 1.44 µM) | 1.29 | 0.35 µg/mL (≈ 2.52 µM) | 1.75 | 
C[C@@H]1[C@H](O)[C@@H](C)/C=C/C=C/C=C/C=C/C=C/C=C/C=C/[C@H](O[C@@H]2O[C@H](C)[C@@H](O)[C@H](N)[C@@H]2O)C[C@@H]2O[C@](O)(C[C@@H](O)C[C@@H](O)[C@H](O)CC[C@@H](O)C[C@@H](O)CC(=O)O[C@H]1C)C[C@H](O)[C@H]2C(=O)O [Amphotericin B, reference compound] |  | 0.051 |  |  |  | 15 mg/kg |  |  | 0.028 |  | 0.016 | activity relative to the β-nitrovinylfuran derivatives (Leishmania promastigotes): more active than the β-nitrovinylfuran derivatives; lesion evolution versus controls (L. m. amazonensis [6]): evolved similarly to controls; lesion growth rate after discontinuation (L. m. amazonensis [6]; first week after discontinuation of treatment, 1 mg/Kg): remarkable decrease of lesion growth rate; LD50 [3]: 22 mg/kg; dorso-plantar diameter versus control (L. m. amazonensis [7]; by the end of treatment): incremented their lesion dorso-plantar diameters as controls; lateral diameter versus control (L. m. amazonensis [7]; by the end of treatment): the change was not different; effectiveness on chronic lesions (L. m. amazonensis [7]): not effective
O=[N+]([O-])C=Cc1ccc(Br)o1 [B, 2-bromo-5-(2-nitrovinyl)-furan] | 0.45 µg/mL (≈ 2.06 µM) | 2.08 | 1.2 µg/mL and 5.7 µM | 3.3 μg/mL and 15.3 μM | 20 mg/kg | 45 mg/kg | 73 mg/kg | 0.18 µg/mL (≈ 0.826 µM) | 0.61 | 0.23 µg/mL (≈ 1.06 µM) | 0.51 | 
O=C(Cn1ccnc1[N+](=O)[O-])NCc1ccccc1 [Benznidazole, reference compound] |  |  | 0.9 µg/mL and 3.3 µM | >40 μg/mL and >154 μM |  |  |  |  |  |  |  | 
O=[N+]([O-])C(Br)=Cc1ccco1 [Compound C, 2-(2-bromo-2-nitrovinyl)-furan] | 0.63 µg/mL (≈ 2.89 µM) | 1.77 | 3.7 µg/mL and 16.9 µM | 10.0 μg/mL and 45.9 μM |  | 35 mg/kg | 51 mg/kg | 0.25 µg/mL (≈ 1.15 µM) | 1.25 | 0.36 µg/mL (≈ 1.65 µM) | 2.01 | 
O=[N+]([O-])C(Br)=Cc1ccc(Br)o1 [D, 2-bromo-5-(2-bromo-2-nitrovinyl)-furan] | 0.25 µg/mL (≈ 0.842 µM) | 1.53 | 4.1 µg/mL and 13.9 µM | 10.0 μg/mL and 33.7 μM | 5 mg/kg | 15 mg/kg | 24 mg/kg | 0.26 µg/mL (≈ 0.876 µM) | 0.49 | 0.35 µg/mL (≈ 1.18 µM) | 0.86 | lesion size (L. m. amazonensis [8]; first week of treatment, 2 mg/Kg i.p. every 12 h, P<0.001 vs control): decreased during the first week of treatment; activity compared with Amphotericin B (L. m. amazonensis [8]): higher activity than Amphotericin B; lesion growth rate (L. m. amazonensis [8]): significantly lower compared to controls; lesion size (L. m. amazonensis [8]; seven days after finishing treatment, P<0.05): smaller than those of controls; side effects (cutaneous leishmaniosis): did not evidence any side effect that impeded the continuation of therapy; patients with total cure of the cutaneous lesions (cutaneous leishmaniosis; one hundred patients): 90%; lesion evolution versus controls (L. m. amazonensis [6]): remained for two other weeks after treatment had finished; lesion growth (L. m. amazonensis [6]; first week of treatment): minimal lesion growth; MTD at 14 days ([3]; mouse, in vivo, ip, repeated intraperitoneal administration every 12 h during 14 days, read-out: MTD (every 12 h)): 2 to 3 mg/kg; dorso-plantar diameter versus control (L. m. amazonensis [7]; by the end of treatment): significantly different; lesion size (L. m. amazonensis [7]): decrease of lesion size; dorso-plantar diameter of the infected foot (L. m. amazonensis [7]; first week of treatment, P<0.05 vs control): decrease of the dorso-plantar diameter; lateral diameter of the lesions (L. m. amazonensis [7]; first week of treatment, P>0.05): comparable to the diameter of control mice
CC(=Cc1ccco1)[N+](=O)[O-] [E, 2-(2-methyl-2-nitrovinyl)-furan] | 0.34 µg/mL (≈ 2.22 µM) | 3.49 | 4.7 µg/mL and 31 µM | 30.0 μg/mL and 196.1 μM | 60 mg/kg | 65 mg/kg | 80 mg/kg | 0.35 µg/mL (≈ 2.29 µM) | 4.84 | 0.31 µg/mL (≈ 2.02 µM) | 1.27 | 
CC(=Cc1ccc(Br)o1)[N+](=O)[O-] [F, 2-bromo-5-(2-methyl-2-nitrovinyl)-furan] | 0.2 µg/mL (≈ 0.862 µM) | 1.42 | 5.3 µg/mL and 23 µM | 30.0 μg/mL and 129.3 μM | 100 mg/kg | 200 mg/kg | 246 mg/kg | 0.24 µg/mL (≈ 1.03 µM) | 1.32 | 0.2 µg/mL (≈ 0.862 µM) | 0.62 | activity compared with Amphotericin B (L. m. amazonensis [8]): higher activity than Amphotericin B; lesion growth rate (L. m. amazonensis [8]): significantly lower compared to controls; lesion size change (L. m. amazonensis [6]; first week of treatment, 50 mg/Kg i.p. daily): small decrease in lesion size; lesion growth (L. m. amazonensis [6]; first week of treatment): minimal lesion growth; lesion size (L. m. amazonensis [7]): ineffective; effectiveness on chronic lesions (L. m. amazonensis [7]): did not prove to be effective
meglumine antimoniate [Glucantime ®, reference compound] |  | >4250 |  |  |  |  |  |  | >4250 |  | >4250 | activity relative to the β-nitrovinylfuran derivatives (Leishmania promastigotes): significantly less active
